Reference: US10800767B2, “Thyroid hormone receptor beta agonist compounds” (Terns, Inc., priority 2018, dated 2020)
pEC50: −log10 of the molar value.

Legend:
[1] = molecular target: TR beta-LBD (thyroid hormone receptor beta) (Homo sapiens (Human), UniProt P10828); assay: LanthaScreen TR-FRET Thyroid Receptor beta Coactivator Assay (agonist screening); assay type: biochemical; conditions: for THRβ-Selectivity: THR beta over THR alpha, derived from T3-selectivity normalized data; for pEC50: TR-FRET coactivator assay, TR beta-LBD 1.0 nM, 2 hour incubation, average of duplicate runs, read-out: EC50 THRβ-FRET
TR beta-LBD (thyroid hormone receptor beta), sequence (P10828 217-461): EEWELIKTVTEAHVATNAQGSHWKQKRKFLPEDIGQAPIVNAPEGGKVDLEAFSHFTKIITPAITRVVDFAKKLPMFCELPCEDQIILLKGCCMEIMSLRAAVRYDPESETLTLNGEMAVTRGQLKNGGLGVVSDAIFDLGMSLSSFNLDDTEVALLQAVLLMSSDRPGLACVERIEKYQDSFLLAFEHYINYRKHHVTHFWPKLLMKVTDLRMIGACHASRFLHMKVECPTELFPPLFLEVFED
Experimental: (§1) Example B1: Time-Resolved Fluorescence Resonance Energy Transfer (TR-FRET) Assay for Thyroid Hormone Receptor Agonist Screening
(§2) LanthaScreen™ TR-FRET Thyroid Receptor alpha Coactivator Assay kit (ThermoFisher) and LanthaScreen™ TR-FRET Thyroid Receptor beta Coactivator Assay kit (ThermoFisher) were used for agonist compound screening. Compounds in DMSO were diluted using ECHO Liquid Handler (Labcyte Inc.) into 384 plates in 10-point 3-fold series in duplicate (5 micro M final top concentration). Buffer C (ThermoFisher) was added to each well before the 4× mixture of fluorescein-SCR2-2 coactivator (200 nM final concentration), Terbium-labeled anti-GST antibody (2 nM final concentration), and TR alpha-LBD (0.4 nM final concentration) or TR beta-LBD (1.0 nM final concentration) was added. After 2 hour incubation at room temperature in dark, the TR-FRET signal was measured on an EnVision plate reader (PerkinElmer) with excitation at 340 nm and dual emission readout at 495 and 520 nm with the delay time of 100 micro second and the integration time of 200 micro second. The ratio of emission signal at 520 and at 495 was used to calculate EC50 using GraphPad Prism (GraphPad Software). In every batch of compound screening, T3 (L-3,3′,5-Triiodothyronine sodium salt, >95%) (Calbiochem) was used as reference compound. The EC50 of T3 measured were within 3-fold of the reference value provided by the assay kit manufacturer (ThermoFisher Scientific). The Z′ factors measured in every batch of screening using T3 as high percent effect (HPE) control and 0.5% DMSO as zero percent effect (ZPE) control were in the range of 0.5 to 0.8. Compounds' THR-beta selectivity values are derived from T3-selectivity normalized data.

[2] = molecular target: TR alpha-LBD (thyroid hormone receptor alpha) (Homo sapiens (Human), UniProt P10827); assay: LanthaScreen TR-FRET Thyroid Receptor alpha Coactivator Assay (agonist screening); assay type: biochemical; conditions: TR alpha-LBD 0.4 nM, 2 hour incubation, average of duplicate runs, read-out: EC50 THRα-FRET
TR alpha-LBD (thyroid hormone receptor alpha), sequence (P10827 other isoform, or with tags, fused parts or gaps del 1-162, other chains not shown): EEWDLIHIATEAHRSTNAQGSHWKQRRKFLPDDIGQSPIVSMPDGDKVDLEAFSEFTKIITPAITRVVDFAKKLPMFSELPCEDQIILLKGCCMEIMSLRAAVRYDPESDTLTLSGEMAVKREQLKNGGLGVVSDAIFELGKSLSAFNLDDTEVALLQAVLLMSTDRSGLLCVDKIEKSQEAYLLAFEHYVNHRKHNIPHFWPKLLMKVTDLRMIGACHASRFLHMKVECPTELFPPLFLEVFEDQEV
Experimental: as §1, §2

SMILES | THRβ-Selectivity [1] | pEC50 [1] | pEC50 [2]
CC(C)c1cc(Oc2c(Cl)cc(NC(=O)c3noc(=O)[nH]3)c3c2CCC3)nn(C)c1=O [Example 24, N-(6-chloro-7-((5-isopropyl-1-methyl-6-oxo-1,6-dihydropyridazin-3-yl)oxy)-2,3-dihydro-1H-inden-4-yl)-5-oxo-4,5-dihydro-1,2,4-oxadiazole-3-carboxamide] | 39.5 | 6.73 | 5.69
O=C(Nc1cc(Cl)c(Oc2cc(C3CC3)c(=O)[nH]n2)c(Cl)c1)c1noc(=O)[nH]1 [Example 25, N-(3,5-dichloro-4-((5-cyclopropyl-6-oxo-1,6-dihydropyridazin-3-yl)oxy)phenyl)-5-oxo-4,5-dihydro-1,2,4-oxadiazole-3-carboxamide] | 42.1 | 6.64 | 5.62
CC(C)c1cc(Oc2c(Cl)cc(NC(=O)c3noc(=O)[nH]3)c(F)c2Cl)nn(C)c1=O [Example 26, N-(3,5-dichloro-2-fluoro-4-((5-isopropyl-1-methyl-6-oxo-1,6-dihydropyridazin-3-yl)oxy)phenyl)-5-oxo-4,5-dihydro-1,2,4-oxadiazole-3-carboxamide] | 44.6 | 7.24 | 6.16
CC(C)c1cc(Oc2c(Cl)cc(NCc3noc(=O)[nH]3)c(F)c2Cl)nn(C)c1=O [Example 27, 3-(((3,5-dichloro-2-fluoro-4-((5-isopropyl-1-methyl-6-oxo-1,6-dihydropyridazin-3-yl)oxy)phenyl)amino)methyl)-1,2,4-oxadiazol-5(4H)-one] | 21.5 | 7.57 | 6.84
CC(C)(C)c1cc(Oc2c(Cl)cc(NC(=O)c3noc(=O)[nH]3)cc2Cl)n[nH]c1=O [Example 28, N-(4-((5-(tert-butyl)-6-oxo-1,6-dihydropyridazin-3-yl)oxy)-3,5-dichlorophenyl)-5-oxo-4,5-dihydro-1,2,4-oxadiazole-3-carboxamide] | 67 | 6.54 | 5.37
CC(O)c1cc(Oc2c(Cl)cc(NC(=O)c3noc(=O)[nH]3)cc2Cl)n[nH]c1=O (stereo not drawn) [Example 29, N-(3,5-dichloro-4-((5-(1-hydroxyethyl)-6-oxo-1,6-dihydropyridazin-3-yl)oxy)phenyl)-5-oxo-4,5-dihydro-1,2,4-oxadiazole-3-carboxamide] | 88.9 | 6.63 | 5.36
C[C@@H](O)c1cc(Oc2c(Cl)cc(NC(=O)c3noc(=O)[nH]3)cc2Cl)n[nH]c1=O [Example 29P1, (R)—N-(3,5-dichloro-4-((5-(1-hydroxyethyl)-6-oxo-1,6-dihydropyridazin-3-yl)oxy)phenyl)-5-oxo-4,5-dihydro-1,2,4-oxadiazole-3-carboxamide] | >10.4 | 5.58 | < 5.30
C[C@H](O)c1cc(Oc2c(Cl)cc(NC(=O)c3noc(=O)[nH]3)cc2Cl)n[nH]c1=O [Example 29P2, (S)—N-(3,5-dichloro-4-((5-(1-hydroxyethyl)-6-oxo-1,6-dihydropyridazin-3-yl)oxy)phenyl)-5-oxo-4,5-dihydro-1,2,4-oxadiazole-3-carboxamide] | 80.8 | 7.04 | 5.75
Cc1cc(NC(=O)c2noc(=O)[nH]2)cc(C)c1Cc1cc(C(C)C)c(=O)[nH]n1 [Example 30, N-(4-((5-isopropyl-6-oxo-1,6-dihydropyridazin-3-yl)methyl)-3,5-dimethylphenyl)-5-oxo-4,5-dihydro-1,2,4-oxadiazole-3-carboxamide] | 14.3 | 6.09 | 5.51
O=C(Nc1cc(Cl)c(Oc2cc(C34CC(C3)C4)c(=O)[nH]n2)c(Cl)c1)c1noc(=O)[nH]1 [Example 31, N-(4-((5-(bicyclo[1.1.1]pentan-1-yl)-6-oxo-1,6-dihydropyridazin-3-yl)oxy)-3,5-dichlorophenyl)-5-oxo-4,5-dihydro-1,2,4-oxadiazole-3-carboxamide] | >34.8 | 6.22 | < 5.30
CCC(O)c1cc(Oc2c(Cl)cc(NC(=O)c3noc(=O)[nH]3)cc2Cl)n[nH]c1=O (stereo not drawn) [Example 32, N-(3,5-dichloro-4-((5-(1-hydroxypropyl)-6-oxo-1,6-dihydropyridazin-3-yl)oxy)phenyl)-5-oxo-4,5-dihydro-1,2,4-oxadiazole-3-carboxamide] | 77.9 | 7.06 | 5.81
CC[C@@H](O)c1cc(Oc2c(Cl)cc(NC(=O)c3noc(=O)[nH]3)cc2Cl)n[nH]c1=O [Example 32P1, (R)—N-(3,5-dichloro-4-((5-(1-hydroxypropyl)-6-oxo-1,6-dihydropyridazin-3-yl)oxy)phenyl)-5-oxo-4,5-dihydro-1,2,4-oxadiazole-3-carboxamide] | 27.9 | 6.35 | 5.37
CC[C@H](O)c1cc(Oc2c(Cl)cc(NC(=O)c3noc(=O)[nH]3)cc2Cl)n[nH]c1=O [Example 32P2, (S)—N-(3,5-dichloro-4-((5-(1-hydroxypropyl)-6-oxo-1,6-dihydropyridazin-3-yl)oxy)phenyl)-5-oxo-4,5-dihydro-1,2,4-oxadiazole-3-carboxamide] | 81 | 7.36 | 5.94
CC(C)(O)c1cc(Oc2c(Cl)cc(NC(=O)c3noc(=O)[nH]3)cc2Cl)n[nH]c1=O [Example 33, N-(3,5-dichloro-4-((5-(2-hydroxypropan-2-yl)-6-oxo-1,6-dihydropyridazin-3-yl)oxy)phenyl)-5-oxo-4,5-dihydro-1,2,4-oxadiazole-3-carboxamide] | >84.3 | 6.67 | < 5.30
CC(C)c1cc(Oc2c(Cl)cc(NC(=O)c3noc(=O)[nH]3)c(F)c2Cl)n[nH]c1=O [Example 34, N-(3,5-dichloro-2-fluoro-4-((5-isopropyl-6-oxo-1,6-dihydropyridazin-3-yl)oxy)phenyl)-5-oxo-4,5-dihydro-1,2,4-oxadiazole-3-carboxamide] | 10.9 | 6.78 | 6.24
CC(CO)c1cc(Oc2c(Cl)cc(NC(=O)c3noc(=O)[nH]3)cc2Cl)nn(C)c1=O (stereo not drawn) [Example 35, N-(3,5-dichloro-4-((5-(1-hydroxypropan-2-yl)-1-methyl-6-oxo-1,6-dihydropyridazin-3-yl)oxy)phenyl)-5-oxo-4,5-dihydro-1,2,4-oxadiazole-3-carboxamide] | 15.8 | 6.12 | 5.58
CC(CO)c1cc(Oc2c(Cl)cc(NC(=O)c3noc(=O)[nH]3)cc2Cl)n[nH]c1=O (stereo not drawn) [Example 36, N-(3,5-dichloro-4-((5-(1-hydroxypropan-2-yl)-6-oxo-1,6-dihydropyridazin-3-yl)oxy)phenyl)-5-oxo-4,5-dihydro-1,2,4-oxadiazole-3-carboxamide] | >15.7 | 6.33 | < 5.30
Cn1nc(Oc2c(Cl)cc(NC(=O)c3noc(=O)[nH]3)cc2Cl)cc(C(C)(C)O)c1=O [Example 37, N-(3,5-dichloro-4-((5-(2-hydroxypropan-2-yl)-1-methyl-6-oxo-1,6-dihydropyridazin-3-yl)oxy)phenyl)-5-oxo-4,5-dihydro-1,2,4-oxadiazole-3-carboxamide] | 15.5 | 7.46 | 6.67
